Values belong to the compound of their own block, whether it stands above or below them.
Legend:
Hepatocyte = test: Drug metabolism in rat hepatocytes assessed as glucuronidation; format: ADME, cell-based
[1] = molecular target: Dual specificity protein kinase CLK1 (Homo sapiens) (UniProt P49759); test: Inhibition of CLK1 (unknown origin) at 100 nM
[2] = molecular target: Focal adhesion kinase 1 (Homo sapiens) (UniProt Q05397); test: Inhibition of FAK (unknown origin) at 100 nM
[3] = molecular target: Myosin light chain kinase, smooth muscle (Homo sapiens) (UniProt Q15746); test: Inhibition of MYLK (unknown origin) at 100 nM
[4] = molecular target: MAP/microtubule affinity-regulating kinase 3 (Homo sapiens) (UniProt P27448); test: Inhibition of MARK3 (unknown origin) at 100 nM
[5] = molecular target: Epidermal growth factor receptor (Homo sapiens, UniProt P00533, L858R/T790M); test: Inhibition of EGFR T790M/L858R mutant autophosphorylation in human H1975 cells; format: cell-based
Epidermal growth factor receptor, sequence (P00533 25-1210 T790M/L858R limits assumed): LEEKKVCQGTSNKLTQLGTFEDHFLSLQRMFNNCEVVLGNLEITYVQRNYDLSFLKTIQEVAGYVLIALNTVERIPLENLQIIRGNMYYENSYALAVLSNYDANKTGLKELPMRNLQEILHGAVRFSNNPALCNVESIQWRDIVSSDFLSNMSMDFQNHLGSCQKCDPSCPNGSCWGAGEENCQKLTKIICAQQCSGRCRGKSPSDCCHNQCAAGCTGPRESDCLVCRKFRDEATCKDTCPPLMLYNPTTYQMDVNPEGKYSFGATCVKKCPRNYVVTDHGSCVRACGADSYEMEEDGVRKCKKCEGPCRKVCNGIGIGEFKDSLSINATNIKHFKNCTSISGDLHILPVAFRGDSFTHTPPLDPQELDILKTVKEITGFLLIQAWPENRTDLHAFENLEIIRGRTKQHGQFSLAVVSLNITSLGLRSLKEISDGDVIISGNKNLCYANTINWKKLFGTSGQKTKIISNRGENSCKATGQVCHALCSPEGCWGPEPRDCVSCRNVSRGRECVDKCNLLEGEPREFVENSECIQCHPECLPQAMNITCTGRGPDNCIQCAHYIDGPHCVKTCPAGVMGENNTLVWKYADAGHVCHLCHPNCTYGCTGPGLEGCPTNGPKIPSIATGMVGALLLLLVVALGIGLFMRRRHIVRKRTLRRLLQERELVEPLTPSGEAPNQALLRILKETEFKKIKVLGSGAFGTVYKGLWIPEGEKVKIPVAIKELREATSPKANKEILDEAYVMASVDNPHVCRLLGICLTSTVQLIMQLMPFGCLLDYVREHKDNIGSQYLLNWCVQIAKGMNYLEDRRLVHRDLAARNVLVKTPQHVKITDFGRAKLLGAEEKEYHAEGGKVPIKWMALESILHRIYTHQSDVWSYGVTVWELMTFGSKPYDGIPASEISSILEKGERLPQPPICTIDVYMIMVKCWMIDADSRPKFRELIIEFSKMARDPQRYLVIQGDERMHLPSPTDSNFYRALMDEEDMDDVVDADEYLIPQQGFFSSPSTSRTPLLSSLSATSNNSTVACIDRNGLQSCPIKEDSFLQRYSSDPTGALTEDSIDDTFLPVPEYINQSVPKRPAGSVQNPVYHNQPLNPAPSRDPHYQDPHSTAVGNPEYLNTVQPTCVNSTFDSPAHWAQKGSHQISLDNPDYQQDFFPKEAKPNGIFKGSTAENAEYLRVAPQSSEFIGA

[6] = molecular target: Macrophage-stimulating protein receptor (Homo sapiens) (UniProt Q04912); test: Inhibition of RON (unknown origin) at 100 nM
[7] = Total AUC in rat at 5 mg/kg, po; format: ADME, organism-based; set-up: dose 5 mg/kg, time AUCmax, route oral; details: in vivo
[8] = molecular target: Serine/threonine-protein kinase PAK 2 (Homo sapiens) (UniProt Q13177); test: Inhibition of PAK2 (unknown origin) at 100 nM
[9] = molecular target: Serine/threonine-protein kinase N1 (Homo sapiens) (UniProt Q16512); test: Inhibition of PRK1 (unknown origin) at 100 nM
Rattus norvegicus = test: Unbound AUC in rat at 5 mg/kg, po; format: ADME, organism-based; details: in vivo
[10] = molecular target: Dual specificity protein kinase TTK (Homo sapiens) (UniProt P33981); test: Inhibition of TTK (unknown origin) at 100 nM
Dual specificity protein kinase TTK (Homo sapiens), sequence (P33981 whole entry): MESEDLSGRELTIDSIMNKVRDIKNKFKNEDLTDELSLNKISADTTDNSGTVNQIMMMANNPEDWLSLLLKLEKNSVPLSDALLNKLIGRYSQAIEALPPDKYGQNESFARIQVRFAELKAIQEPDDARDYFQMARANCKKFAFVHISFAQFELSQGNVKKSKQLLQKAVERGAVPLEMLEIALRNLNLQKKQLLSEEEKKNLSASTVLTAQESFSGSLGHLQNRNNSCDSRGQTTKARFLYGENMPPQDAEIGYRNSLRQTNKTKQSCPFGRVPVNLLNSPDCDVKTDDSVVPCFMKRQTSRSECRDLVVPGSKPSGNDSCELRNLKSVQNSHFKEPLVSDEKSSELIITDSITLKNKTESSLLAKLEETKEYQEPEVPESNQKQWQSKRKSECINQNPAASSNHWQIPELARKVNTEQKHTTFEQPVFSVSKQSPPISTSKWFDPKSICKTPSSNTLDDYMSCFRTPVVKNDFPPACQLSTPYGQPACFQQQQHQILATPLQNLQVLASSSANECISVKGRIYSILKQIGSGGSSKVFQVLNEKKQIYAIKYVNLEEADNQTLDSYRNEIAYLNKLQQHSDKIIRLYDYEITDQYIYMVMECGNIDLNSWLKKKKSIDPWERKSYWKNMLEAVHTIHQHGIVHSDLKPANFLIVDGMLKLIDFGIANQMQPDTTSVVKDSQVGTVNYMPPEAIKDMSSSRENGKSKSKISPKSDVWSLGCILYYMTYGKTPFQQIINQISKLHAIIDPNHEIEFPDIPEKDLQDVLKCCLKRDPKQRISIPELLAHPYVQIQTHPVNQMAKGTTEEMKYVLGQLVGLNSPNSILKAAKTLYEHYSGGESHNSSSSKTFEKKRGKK

[11] = molecular target: Fibroblast growth factor receptor 4 (Homo sapiens) (UniProt P22455); test: Inhibition of FGFR4 (unknown origin) at 100 nM
[12] = molecular target: Dual specificity tyrosine-phosphorylation-regulated kinase 1B (Homo sapiens) (UniProt Q9Y463); test: Inhibition of DYRK1B (unknown origin) at 100 nM
Homo sapiens [13] = species on record: Homo sapiens; test: Inhibition of SRM (unknown origin) at 100 nM
[14] = molecular target: Cyclin-dependent kinase 5/CDK5 activator 1 (Homo sapiens) (UniProt Q00535+Q15078); test: Inhibition of CDK5/p35 (unknown origin) at 100 nM; format: protein-complex assay
[15] = system: Platelet-derived growth factor receptor alpha (Homo sapiens), P16234 [V561D]; test: Inhibition of PDGFRalpha V561D mutant (unknown origin) at 100 nM
[16] = molecular target: Dual specificity protein kinase CLK4 (Homo sapiens) (UniProt Q9HAZ1); test: Inhibition of CLK4 (unknown origin) at 100 nM
[17] = molecular target: Mitogen-activated protein kinase kinase kinase 2 (Homo sapiens) (UniProt Q9Y2U5); test: Inhibition of MEKK2 (unknown origin) at 100 nM
[18] = molecular target: Mitogen-activated protein kinase kinase kinase kinase 4 (Homo sapiens) (UniProt O95819); test: Inhibition of MAP4K4 (unknown origin) at 100 nM
[19] = system: Receptor-type tyrosine-protein kinase FLT3 (Homo sapiens), P36888 [D835Y]; test: Inhibition of FLT3 D835Y mutant (unknown origin) at 100 nM
[20] = molecular target: Serine/threonine-protein kinase D3 (Homo sapiens) (UniProt O94806); test: Inhibition of PKD3 (unknown origin) at 100 nM
[21] = molecular target: STE20-like serine/threonine-protein kinase (Homo sapiens) (UniProt Q9H2G2); test: Inhibition of SLK (unknown origin) at 100 nM
[22] = molecular target: Serine/threonine-protein kinase pim-2 (Homo sapiens) (UniProt Q9P1W9); test: Inhibition of PIM2 (unknown origin) at 100 nM
[23] = molecular target: Activated CDC42 kinase 1 (Homo sapiens) (UniProt Q07912); test: Inhibition of TNK2 (unknown origin) at 100 nM
[24] = molecular target: Serine/threonine-protein kinase 24 (Homo sapiens) (UniProt Q9Y6E0); test: Inhibition of MST3 (unknown origin) at 100 nM
[25] = molecular target: Mitogen-activated protein kinase kinase kinase 5 (Homo sapiens) (UniProt Q99683); test: Inhibition of ASK1 (unknown origin) at 100 nM
[26] = molecular target: LIM domain kinase 1 (Homo sapiens) (UniProt P53667); test: Inhibition of LIMK1 (unknown origin) at 100 nM
[27] = molecular target: Interleukin-1 receptor-associated kinase 1 (Homo sapiens) (UniProt P51617); test: Inhibition of IRAK1 (unknown origin) at 100 nM
Interleukin-1 receptor-associated kinase 1 (Homo sapiens), sequence (P51617 whole entry, looked up): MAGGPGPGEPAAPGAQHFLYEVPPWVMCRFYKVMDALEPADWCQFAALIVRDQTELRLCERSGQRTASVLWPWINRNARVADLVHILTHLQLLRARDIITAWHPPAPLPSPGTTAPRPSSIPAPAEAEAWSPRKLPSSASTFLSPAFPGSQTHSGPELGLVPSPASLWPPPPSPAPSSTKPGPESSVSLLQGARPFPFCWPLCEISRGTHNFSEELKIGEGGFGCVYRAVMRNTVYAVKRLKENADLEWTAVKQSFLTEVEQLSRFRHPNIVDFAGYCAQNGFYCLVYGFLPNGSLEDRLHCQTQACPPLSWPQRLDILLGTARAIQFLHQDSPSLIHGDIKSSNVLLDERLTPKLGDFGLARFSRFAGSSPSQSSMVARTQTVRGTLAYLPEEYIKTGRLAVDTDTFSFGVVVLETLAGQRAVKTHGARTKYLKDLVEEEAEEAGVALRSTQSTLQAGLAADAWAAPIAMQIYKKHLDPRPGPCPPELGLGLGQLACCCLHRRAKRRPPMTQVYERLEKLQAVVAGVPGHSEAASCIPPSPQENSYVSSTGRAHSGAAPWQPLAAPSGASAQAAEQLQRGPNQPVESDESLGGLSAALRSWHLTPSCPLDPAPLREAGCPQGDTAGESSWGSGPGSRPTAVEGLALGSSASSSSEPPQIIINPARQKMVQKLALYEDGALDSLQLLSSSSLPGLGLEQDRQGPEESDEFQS

[28] = molecular target: Mitogen-activated protein kinase kinase kinase kinase 5 (Homo sapiens) (UniProt Q9Y4K4); test: Inhibition of KHS1 (unknown origin) at 100 nM
[29] = molecular target: CDK9/cyclin T1 (Homo sapiens) (UniProt O60563+P50750); test: Inhibition of CDK9/cyclinT1 (unknown origin) at 100 nM; format: protein-complex assay
[30] = molecular target: G protein-coupled receptor kinase 3 (Homo sapiens) (UniProt P35626); test: Inhibition of GRK3 (unknown origin) at 100 nM
[31] = molecular target: Serine/threonine-protein kinase PAK 5 (Homo sapiens) (UniProt Q9P286); test: Inhibition of PAK7 (unknown origin) at 100 nM
[32] = molecular target: Homeodomain-interacting protein kinase 1 (Homo sapiens) (UniProt Q86Z02); test: Inhibition of HIPK1 (unknown origin) at 100 nM
[33] = molecular target: Serine/threonine-protein kinase PAK 6 (Homo sapiens) (UniProt Q9NQU5); test: Inhibition of PAK6 (unknown origin) at 100 nM
[34] = molecular target: Serine/threonine-protein kinase MRCK beta (Homo sapiens) (UniProt Q9Y5S2); test: Inhibition of MRCKbeta (unknown origin) at 100 nM
Serine/threonine-protein kinase MRCK beta (Homo sapiens), sequence (Q9Y5S2 whole entry): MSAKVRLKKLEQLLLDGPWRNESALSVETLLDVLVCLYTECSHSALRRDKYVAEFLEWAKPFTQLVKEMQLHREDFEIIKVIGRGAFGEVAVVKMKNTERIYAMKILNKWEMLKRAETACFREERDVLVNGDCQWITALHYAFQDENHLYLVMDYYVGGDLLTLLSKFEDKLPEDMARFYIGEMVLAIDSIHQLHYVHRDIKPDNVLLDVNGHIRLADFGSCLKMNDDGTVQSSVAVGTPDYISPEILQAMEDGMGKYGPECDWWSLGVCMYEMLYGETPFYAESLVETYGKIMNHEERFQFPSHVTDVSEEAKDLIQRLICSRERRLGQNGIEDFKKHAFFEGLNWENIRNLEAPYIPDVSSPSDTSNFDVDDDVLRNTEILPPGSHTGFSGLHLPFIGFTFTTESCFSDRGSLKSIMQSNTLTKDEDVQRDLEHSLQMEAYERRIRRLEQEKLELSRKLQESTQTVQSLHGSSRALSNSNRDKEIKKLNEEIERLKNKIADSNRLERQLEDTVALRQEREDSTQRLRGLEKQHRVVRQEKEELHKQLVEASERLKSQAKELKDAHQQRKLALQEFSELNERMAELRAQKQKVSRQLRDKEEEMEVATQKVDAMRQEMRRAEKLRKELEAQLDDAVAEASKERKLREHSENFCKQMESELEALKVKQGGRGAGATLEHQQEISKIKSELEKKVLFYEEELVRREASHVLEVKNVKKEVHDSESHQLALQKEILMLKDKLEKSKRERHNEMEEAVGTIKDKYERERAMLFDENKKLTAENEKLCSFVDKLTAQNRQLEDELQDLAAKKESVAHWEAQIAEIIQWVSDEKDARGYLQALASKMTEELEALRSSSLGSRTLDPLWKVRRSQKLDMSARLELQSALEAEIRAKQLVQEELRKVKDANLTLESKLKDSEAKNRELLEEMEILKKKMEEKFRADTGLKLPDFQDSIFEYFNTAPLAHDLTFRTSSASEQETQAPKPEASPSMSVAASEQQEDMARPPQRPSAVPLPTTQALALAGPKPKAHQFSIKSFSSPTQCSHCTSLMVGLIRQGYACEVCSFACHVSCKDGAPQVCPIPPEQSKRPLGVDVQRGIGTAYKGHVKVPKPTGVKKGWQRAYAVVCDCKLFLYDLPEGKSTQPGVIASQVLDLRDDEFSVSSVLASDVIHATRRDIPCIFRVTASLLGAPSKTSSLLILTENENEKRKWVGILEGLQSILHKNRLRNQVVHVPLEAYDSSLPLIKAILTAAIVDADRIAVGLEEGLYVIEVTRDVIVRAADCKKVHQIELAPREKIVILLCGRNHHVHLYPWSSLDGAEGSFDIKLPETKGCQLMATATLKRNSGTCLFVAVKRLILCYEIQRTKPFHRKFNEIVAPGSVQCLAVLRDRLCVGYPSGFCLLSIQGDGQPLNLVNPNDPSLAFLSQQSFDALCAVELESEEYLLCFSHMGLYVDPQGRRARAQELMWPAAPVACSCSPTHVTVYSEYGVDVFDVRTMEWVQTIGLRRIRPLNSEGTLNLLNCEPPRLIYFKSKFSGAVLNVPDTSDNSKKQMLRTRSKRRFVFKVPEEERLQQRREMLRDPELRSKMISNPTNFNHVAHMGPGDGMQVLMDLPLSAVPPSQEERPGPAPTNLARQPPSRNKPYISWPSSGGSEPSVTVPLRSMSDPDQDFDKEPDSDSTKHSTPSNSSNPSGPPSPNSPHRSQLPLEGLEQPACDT

[35] = molecular target: Sphingosine kinase 2 (Homo sapiens) (UniProt Q9NRA0); test: Inhibition of SPHK2 (unknown origin) at 100 nM
[36] = molecular target: SRSF protein kinase 1 (Homo sapiens) (UniProt Q96SB4); test: Inhibition of SRPK1 (unknown origin) at 100 nM
[37] = molecular target: Serine/threonine-protein kinase NLK (Homo sapiens) (UniProt Q9UBE8); test: Inhibition of NLK (unknown origin) at 100 nM
[38] = molecular target: Dual specificity mitogen-activated protein kinase kinase 6 (Homo sapiens) (UniProt P52564); test: Inhibition of MKK6 (unknown origin) at 100 nM
[39] = molecular target: Sphingosine kinase 1 (Homo sapiens) (UniProt Q9NYA1); test: Inhibition of SPHK1 (unknown origin) at 100 nM
[40] = molecular target: Homeodomain-interacting protein kinase 4 (Homo sapiens) (UniProt Q8NE63); test: Inhibition of HIPK4 (unknown origin) at 100 nM
[41] = molecular target: Phosphatidylinositol 4-kinase alpha (Homo sapiens) (UniProt P42356); test: Inhibition of PI4Ka (unknown origin) at 100 nM
Homo sapiens [42] = species on record: Homo sapiens; test: Inhibition of MET I250T mutant (unknown origin) at 100 nM

Dual specificity protein kinase CLK1 (Homo sapiens), sequence (P49759 whole entry, looked up): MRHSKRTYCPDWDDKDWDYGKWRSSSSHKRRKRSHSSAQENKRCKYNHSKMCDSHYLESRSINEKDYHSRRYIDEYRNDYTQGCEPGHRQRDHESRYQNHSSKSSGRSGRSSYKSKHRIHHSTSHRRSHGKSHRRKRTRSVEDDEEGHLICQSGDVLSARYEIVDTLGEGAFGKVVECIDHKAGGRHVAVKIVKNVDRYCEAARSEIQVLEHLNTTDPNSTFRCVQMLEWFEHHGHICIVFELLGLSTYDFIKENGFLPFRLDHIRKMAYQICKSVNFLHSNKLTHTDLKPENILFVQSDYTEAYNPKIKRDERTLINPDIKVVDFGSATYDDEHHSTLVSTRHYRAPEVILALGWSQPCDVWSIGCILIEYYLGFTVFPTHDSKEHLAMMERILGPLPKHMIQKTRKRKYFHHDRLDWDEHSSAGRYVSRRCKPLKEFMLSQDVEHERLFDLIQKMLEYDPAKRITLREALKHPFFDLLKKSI

- Drug metabolism (Hepatocyte): metabolite_detected
Compound: CC1(C)OCc2c(Nc3n[nH]c4c(Cl)cccc34)nc(-c3cn[nH]c3)nc21

- inhibition [1]: 7.3%
- inhibition [2]: 7.2%
- inhibition [3]: 2.8%
- inhibition [4]: 8.4%
- IC50 [5]: 0.6 µM
- inhibition [6]: 3.8%
- AUC [7]: 0.37 µM·h
- inhibition [8]: 0.3%
- inhibition [9]: 3.7%
- fAUC (Rattus norvegicus): 0.05 µM·h
- inhibition [10]: 4.3%
- inhibition [11]: 14.7%
- inhibition [12]: -1.6%
- inhibition (Homo sapiens [13]): 17.3%
- inhibition [14]: 3.1%
- inhibition [15]: 89.2%
- inhibition [16]: 13.3%
- inhibition [17]: 43.6%
- inhibition [18]: 51.3%
- inhibition [19]: 24.8%
- inhibition [20]: 19%
- inhibition [21]: 66%
- inhibition [22]: 3.1%
- inhibition [23]: 7.8%
- inhibition [24]: 0.8%
- inhibition [25]: 4.2%
- inhibition [26]: 3.1%
- inhibition [27]: 2.2%
- inhibition [28]: 12.7%
- inhibition [29]: -6.1%
- inhibition [30]: -3.6%
- inhibition [31]: -1.8%
- inhibition [32]: -2%
- inhibition [33]: -0.3%
- inhibition [34]: -3.9%
- inhibition [35]: -9.8%
- inhibition [36]: 3.9%
- inhibition [37]: -0.6%
- inhibition [38]: -0.9%
- inhibition [39]: 0%
- inhibition [40]: 5.1%
- inhibition [41]: -2.6%
- inhibition (Homo sapiens [42]): 4%
Compound: CC1(C)OCc2c(Nc3n[nH]c4ccccc34)nc(-c3cn[nH]c3)nc21

— ChEMBL document CHEMBL3758169, “4-Aminoindazolyl-dihydrofuro[3,4-d]pyrimidines as non-covalent inhibitors of mutant epidermal growth factor receptor tyrosine kinase” (Bioorg Med Chem Lett, 2016)
